# Several values for one entry are separate records, joined by “and”; a condition that tells them apart may be missing. Equal values may be shown once. Where a name gives a salt, the structure may show the parent alone. Read-outs that look alike come from different tables or passages of the source.
# Legend:
# GRABDA1m = conditions: 50 μM DA
# GRABNE sensors = experiment: Ligand specificity and dynamic range of GRABNE sensors; assay type: cell-based, human; conditions: for fluorescence response of the sensors to the compound: HEK293T cells, Fig. 2G
# GRABNE1h [1] = experiment: GRABNE1h fluorescence in acute mouse hippocampal slices; assay type: cell-based, human
# GRABNE1m [2] = target: T1, GRABNE1m (Homo sapiens, UniProt P08913); assay type: cell-based; conditions: cultured neurons
# GRABNE1m [3] = conditions: cultured hippocampal slices; puff application in ACSF
# [4] = tested on: optogenetically evoked NE release in the LC (GRABNE1m fluorescence); assay type: in vivo, mouse; conditions: i.p.; desipramine 10 mg/kg, yohimbine 2 mg/kg
# [5] = tested on: NE dynamics in the lateral hypothalamus (GRABNE1m fluorescence); assay type: in vivo, mouse; conditions: i.p.; atomoxetine 3 mg/kg, yohimbine 2 mg/kg, GBR 12909 10 mg/kg, sulpiride 50 mg/kg
# [6] = tested on: looming-evoked NE release (GRABNE1m fluorescence); experiment: Looming-evoked GRABNE1m fluorescence in optic tectum of zebrafish; assay type: in vivo; conditions: for effect on looming-induced increase in GRABNE1m fluorescence: bath application 50 μM
# GRABNEmut [7] = assay type: cell-based, human; conditions: cultured hippocampal slices
# GRABNE1h [8] = assay type: cell-based, human; conditions: cultured hippocampal slices; puff application in ACSF
# GRABNE1m [9] = target: T1, GRABNE1m; assay type: cell-based
# GRABNE1m [10] = experiment: Bath application to Tg; assay type: in vivo, zebrafish
# GRABNEmut [11] = experiment: Fluorescence response of GRABNEmut expressed in HEK293T cells; assay type: cell-based, human; conditions: 100 μM NE
# GRABNE1h [12] = target: GRABNE1h (Homo sapiens, UniProt P08913, T388K); experiment: Fluorescence response of GRABNE1h expressed in HEK293T cells; assay type: cell-based
# GRABNEmut [13] = experiment: Bath application to zebrafish expressing GRABNEmut; assay type: in vivo; conditions: 50 μM NE
# GRABNE1m [14] = assay type: cell-based, human
# [15] = tested on: release of endogenous NE in the LC (GRABNE1m fluorescence); assay type: cell-based, mouse
# GRABNE1h [16] = experiment: Fluorescence response of GRABNE1h expressed in HEK293T cells; assay type: cell-based, human; conditions: 10 μM yohimbine
molecule,measurement,setting,value
"NCCc1ccc(O)c(O)c1 [DA, Dopamine hydrochloride]",fluorescence response to application,GRABDA1m,responded robustly
"CNC[C@H](O)c1ccc(O)c(O)c1 [Epi, Epinephrine hydrochloride]",fluorescence response of the sensors to the compound,GRABNE sensors,responded
same,fluorescence response to exogenous application,GRABNE1h [1],evoked a fluorescence increase
same,fluorescence response to the compound,GRABNE1m [2]; compounds at 10 μM each,responded specifically
same,fluorescence response to exogenous application,GRABNE1m [3],generated fluorescence increases
Fc1ccc(C(OCCN2CCN(CCCc3ccccc3)CC2)c2ccc(F)cc2)cc1 [GBR 12909],effect on light-evoked GRABNE1m responses,[4],had no effect
same,effect on GRABNE1m peak fluorescence during tail suspension,[5],had no effect
same,effect on time to return to baseline after tail suspension,[5],had no effect
"Cc1ccc(OCC(O)C(C)NC(C)C)c2c1CCC2.Cl (stereo not drawn) [ICI 118,551, ICI 118,551 hydrochloride]",effect on looming-induced increase in GRABNE1m fluorescence,[6],unaffected
"NC[C@H](O)c1ccc(O)c(O)c1 [NE, Norepinephrine]",fluorescence response to exogenous application,GRABNEmut [7],no detectable effect
same,fluorescence response of the sensors to the compound,GRABNE sensors,responded
same,peak ΔF/F0 response / dynamic range of the GRABNE sensor family,GRABNE sensors; saturating NE,230% and ~ 200%
same,fluorescence response to exogenous application,GRABNE1h [8],evoked a robust increase in fluorescence
same,average τoff,"GRABNE1m [9]; HEK293T cells, NE followed by 200 μM yohimbine, line scanning",680 ms
same,internalization of GRABNE1m,GRABNE1m [9]; saturating concentration of NE for 2 h,no internalization
same,fluorescence response to exogenous application,GRABNE1h [1],evoked a fluorescence increase
same,fluorescence response to bath application,"GRABNE1m [10]; 50 μM, tectal neuropil, larvae",elicited a robust increase in fluorescence intensity
same,fluorescence response to NE,GRABNEmut [11],does not respond
same,fluorescence response to exogenous application,GRABNE1m [3],evoked a robust increase in fluorescence
same,maximum ΔF/F0,GRABNE1h [12]; 100 μM NE,~ 130%
same,mean on time constant after photolysis of NPEC-caged NE,"GRABNE1h [12]; 405-nm uncaging, single exponential fit",137 ms
same,average τoff,"GRABNE1h [12]; NE followed by 200 μM yohimbine, line scanning",1890 ms
same,increase in sensitivity to NE compared with GRABNE1m,GRABNE1h [12]; T6.34K point mutation,10 fold
same,fluorescence response to NE,GRABNEmut [13],did not respond
"CNCC[C@@H](Oc1ccccc1C)c1ccccc1 [atomoxetine, Atomoxetine hydrochloride]",effect on GRABNE1m peak fluorescence during tail suspension,[5],had no effect
same,effect on time to return to baseline after tail suspension,[5],significantly slowed the return of signal to its baseline
"Brc1c(NC2=NCCN2)ccc2nccnc12 [brimonidine, UK 14,304 tartrate]",fluorescence response of the sensors to the compound,GRABNE sensors,responded
same,fluorescence response to exogenous application,GRABNE1h [1],evoked a fluorescence increase
same,fluorescence response to exogenous application,GRABNE1m [3],generated fluorescence increases
"CNCCCN1c2ccccc2CCc2ccccc21 [desipramine, Desipramine hydrochloride]",effect on decay of looming-induced fluorescence signal,[6]; desipramine 50 μM,slowed the decay of the fluorescence signal
same,effect on basal GRABNE1m fluorescence,[4],slow progressive increase
same,effect on light-evoked GRABNE1m responses,[4],increase in the magnitude and decay time
"CCc1cc(Cl)c(OC)c(C(=O)NC[C@@H]2CCCN2CC)c1O [eticlopiride, Eticlopride hydrochloride]",effect on light-evoked GRABNE1m responses,[4],had no effect
"CCN1CCCC1CNC(=O)c1cc(S(N)(=O)=O)ccc1OC (stereo not drawn) [sulpiride, Sulpiride]",effect on GRABNE1m peak fluorescence during tail suspension,[5],had no effect
same,effect on time to return to baseline after tail suspension,[5],had no effect
"COC(=O)[C@@H]1[C@H]2C[C@H]3c4[nH]c5ccccc5c4CCN3C[C@@H]2CC[C@@H]1O [yohimbine, Yohimbine hydrochloride]",block of NE-induced fluorescence increase,GRABNE sensors; GRABNE-expressing HEK293T cells,blocked
same,block of agonist-evoked fluorescence increase,GRABNE1h [1],blocked
same,block of electrically evoked fluorescence increase,GRABNE1h [1]; stimuli at 20 Hz for 1 s,blocked
same,block of NE-induced fluorescence increase,GRABNE1m [10]; 50 μM antagonist after 50 μM NE,blocked completely
same,block of NE-induced fluorescence increase,GRABNE1m [14],blocked completely
same,effect on looming-induced increase in GRABNE1m fluorescence,[6],blocked
same,block of GRABNE1m response to applied NE,"[15]; 50 μM NE, 20 μM yohimbine, Fig. 4H",abolished
same,effect on stimulation-induced fluorescence response,"[15]; 20 pulses at 20 Hz, 4-AP 100 μM, Cd2+ 100 μM, desipramine 10 μM, yohimbine 20 μM",blocked the response
same,block of uncaging-induced fluorescence increase,GRABNE1h [16],blocked
same,effect on basal GRABNE1m fluorescence,[4],abolished
same,effect on light-evoked GRABNE1m responses,[4],abolished
same,effect on GRABNE1m peak fluorescence during tail suspension,[5],decreased
same,effect on time to return to baseline after tail suspension,[5],significantly accelerated the return to baseline
pertussis toxin,effect on NE-induced fluorescence response,"GRABNE1m [9]; HEK293T cells, blocking G protein activation",had no effect
same,effect on NE-induced fluorescence change,GRABNE1m [2]; inhibiting G protein activation,did not affect
same,effect on NE-induced fluorescence response,GRABNE1h [12]; blocking G protein activation,had no effect
